The NIST ThermoML archive (doi:10.1021/je300045c)
Values joined by “and” are separate entries in the source; they are usually repeats but may differ in a detail not shown here. Identical values can stand only once. ± gives the expanded uncertainty stated by the source.

Tests used:
[1] = xn = mol fraction of the nth substance listed; settings: 358.15 K, 101 kPa, Liquid; for electrical conductivity: Alternating current cell with electrodes; for viscosity: Falling or rolling sphere viscometry; for mass density: Vibrating tube method
[2] = molar heat capacity at constant pressure; wn = mass fraction of the nth substance listed; settings: 358.15 K, 101 kPa, Liquid, Small sample (50 mg) DSC
[3] = 358.15 K, 101 kPa, Liquid

Q: With CCCCn1cc[n+](C)c1.CS(=O)(=O)[O-] [1-butyl-3-methylimidazolium methanesulfonate] + O as the molecule, how does the electrical conductivity ([1]; x2 = 0) read?
A: 0.805 ± 0.14 S/m

Q: What about the electrical conductivity ([1]; x2 = 0.012) of the same molecule?
A: 0.821 ± 0.14 S/m

Q: What about the electrical conductivity ([1]; x2 = 0.028) of the same molecule?
A: 0.84 ± 0.14 S/m

Q: What about the electrical conductivity ([1]; x2 = 0.049) of the same molecule?
A: 0.871 ± 0.14 S/m

Q: And the electrical conductivity ([1]; x2 = 0.074)?
A: 0.907 ± 0.14 S/m

Q: What about the electrical conductivity ([1]; x2 = 0.106) of the same molecule?
A: 0.955 ± 0.14 S/m

Q: And the electrical conductivity ([1]; x2 = 0.131)?
A: 1 ± 0.14 S/m

Q: And the electrical conductivity ([1]; x2 = 0.147)?
A: 1.03 ± 0.14 S/m

Q: And the electrical conductivity ([1]; x2 = 0.156)?
A: 1.06 ± 0.14 S/m

Q: What about the electrical conductivity ([1]; x2 = 0.185) of the same molecule?
A: 1.12 ± 0.14 S/m

Q: What about the electrical conductivity ([1]; x2 = 0.203) of the same molecule?
A: 1.14 ± 0.14 S/m

Q: And the electrical conductivity ([1]; x2 = 0.217)?
A: 1.2 ± 0.14 S/m

Q: And the electrical conductivity ([1]; x2 = 0.252)?
A: 1.29 ± 0.14 S/m

Q: And the electrical conductivity ([1]; x2 = 0.27)?
A: 1.3 ± 0.14 S/m

Q: And the electrical conductivity ([1]; x2 = 0.306)?
A: 1.44 ± 0.14 S/m

Q: What about the electrical conductivity ([1]; x2 = 0.358) of the same molecule?
A: 1.61 ± 0.14 S/m

Q: What about the electrical conductivity ([1]; x2 = 0.363) of the same molecule?
A: 1.59 ± 0.14 S/m

Q: What about the electrical conductivity ([1]; x2 = 0.423) of the same molecule?
A: 1.87 ± 0.14 S/m

Q: What about the electrical conductivity ([1]; x2 = 0.457) of the same molecule?
A: 2 ± 0.14 S/m

Q: What about the electrical conductivity ([1]; x2 = 0.495) of the same molecule?
A: 2.22 ± 0.14 S/m

Q: What about the electrical conductivity ([1]; x2 = 0.535) of the same molecule?
A: 2.46 ± 0.14 S/m

Q: What about the electrical conductivity ([1]; x2 = 0.556) of the same molecule?
A: 2.58 ± 0.14 S/m

Q: What about the electrical conductivity ([1]; x2 = 0.61) of the same molecule?
A: 3.02 ± 0.14 S/m

Q: And the electrical conductivity ([1]; x2 = 0.643)?
A: 3.14 ± 0.14 S/m

Q: And the electrical conductivity ([1]; x2 = 0.677)?
A: 3.71 ± 0.14 S/m

Q: And the electrical conductivity ([1]; x2 = 0.744)?
A: 4.6 ± 0.16 S/m

Q: What about the electrical conductivity ([1]; x2 = 0.75) of the same molecule?
A: 4.81 ± 0.16 S/m

Q: What about the electrical conductivity ([1]; x2 = 0.836) of the same molecule?
A: 6.82 ± 0.2 S/m

Q: And the electrical conductivity ([1]; x2 = 0.842)?
A: 7.27 ± 0.2 S/m

Q: What about the electrical conductivity ([1]; x2 = 0.878) of the same molecule?
A: 9 ± 0.17 S/m

Q: What about the viscosity ([1]; x2 = 0.559) of the same molecule?
A: 7.514 ± 0.76 mPa·s

Q: And the viscosity ([1]; x2 = 0.654)?
A: 5.344 ± 0.54 mPa·s

Q: What about the viscosity ([1]; x2 = 0.702) of the same molecule?
A: 4.549 ± 0.46 mPa·s

Q: What about the viscosity ([1]; x2 = 0.749) of the same molecule?
A: 3.616 ± 0.36 mPa·s

Q: What about the viscosity ([1]; x2 = 0.801) of the same molecule?
A: 2.795 ± 0.28 mPa·s

Q: And the viscosity ([1]; x2 = 0.852)?
A: 2.048 ± 0.21 mPa·s

Q: What about the viscosity ([1]; x2 = 0.9) of the same molecule?
A: 1.486 ± 0.15 mPa·s

Q: And the viscosity ([1]; x2 = 0.925)?
A: 1.149 ± 0.12 mPa·s

Q: And the viscosity ([1]; x2 = 0.95)?
A: 0.834 ± 0.087 mPa·s

Q: And the viscosity ([1]; x2 = 0.975)?
A: 0.547 ± 0.058 mPa·s

Q: What about the mass density ([1]; x2 = 0) of the same molecule?
A: 1134 ± 2 kg/m3

Q: What about the mass density ([1]; x2 = 0.012) of the same molecule?
A: 1134 ± 2 kg/m3

Q: What about the mass density ([1]; x2 = 0.028) of the same molecule?
A: 1134 ± 2 kg/m3

Q: What about the mass density ([1]; x2 = 0.049) of the same molecule?
A: 1134 ± 2 kg/m3

Q: And the mass density ([1]; x2 = 0.074)?
A: 1133 ± 2 kg/m3

Q: And the mass density ([1]; x2 = 0.106)?
A: 1133 ± 2 kg/m3

Q: What about the mass density ([1]; x2 = 0.131) of the same molecule?
A: 1132 ± 2 kg/m3

Q: And the mass density ([1]; x2 = 0.14)?
A: 1132 ± 2 kg/m3

Q: And the mass density ([1]; x2 = 0.147)?
A: 1132 ± 2 kg/m3

Q: And the mass density ([1]; x2 = 0.159)?
A: 1131 ± 2 kg/m3

Q: What about the mass density ([1]; x2 = 0.187) of the same molecule?
A: 1130 ± 2 kg/m3

Q: And the mass density ([1]; x2 = 0.203)?
A: 1130 ± 2 kg/m3

Q: What about the mass density ([1]; x2 = 0.224) of the same molecule?
A: 1129 ± 2 kg/m3

Q: What about the mass density ([1]; x2 = 0.27) of the same molecule?
A: 1129 ± 2 kg/m3

Q: And the mass density ([1]; x2 = 0.271)?
A: 1128 ± 2 kg/m3

Q: And the mass density ([1]; x2 = 0.329)?
A: 1126 ± 4 kg/m3

Q: What about the mass density ([1]; x2 = 0.363) of the same molecule?
A: 1126 ± 4 kg/m3

Q: And the mass density ([1]; x2 = 0.4)?
A: 1125 ± 4 kg/m3

Q: And the mass density ([1]; x2 = 0.457)?
A: 1124 ± 4 kg/m3

Q: What about the mass density ([1]; x2 = 0.478) of the same molecule?
A: 1122 ± 4 kg/m3

Q: And the mass density ([1]; x2 = 0.555)?
A: 1121 ± 4 kg/m3

Q: And the mass density ([1]; x2 = 0.556)?
A: 1120 ± 4 kg/m3

Q: And the mass density ([1]; x2 = 0.559)?
A: 1120.7 ± 2 kg/m3

Q: And the mass density ([1]; x2 = 0.628)?
A: 1118 ± 4 kg/m3

Q: What about the mass density ([1]; x2 = 0.643) of the same molecule?
A: 1116 ± 6 kg/m3

Q: What about the mass density ([1]; x2 = 0.654) of the same molecule?
A: 1114.4 ± 2 kg/m3

Q: And the mass density ([1]; x2 = 0.692)?
A: 1113 ± 6 kg/m3

Q: And the mass density ([1]; x2 = 0.702)?
A: 1110.3 ± 2 kg/m3

Q: And the mass density ([1]; x2 = 0.744)?
A: 1106 ± 6 kg/m3

Q: What about the mass density ([1]; x2 = 0.749) of the same molecule?
A: 1104.1 ± 2 kg/m3

Q: And the mass density ([1]; x2 = 0.771)?
A: 1105 ± 6 kg/m3

Q: And the mass density ([1]; x2 = 0.801)?
A: 1094.9 ± 2 kg/m3

Q: And the mass density ([1]; x2 = 0.836)?
A: 1087 ± 10 kg/m3

Q: What about the mass density ([1]; x2 = 0.848) of the same molecule?
A: 1085 ± 10 kg/m3

Q: What about the mass density ([1]; x2 = 0.852) of the same molecule?
A: 1081.2 ± 2 kg/m3

Q: And the mass density ([1]; x2 = 0.886)?
A: 1072 ± 10 kg/m3

Q: What about the mass density ([1]; x2 = 0.9) of the same molecule?
A: 1062.3 ± 2 kg/m3

Q: And the mass density ([1]; x2 = 0.925)?
A: 1048.2 ± 2 kg/m3

Q: And the mass density ([1]; x2 = 0.95)?
A: 1029.7 ± 2 kg/m3

Q: And the mass density ([1]; x2 = 0.975)?
A: 1003.9 ± 2 kg/m3

Q: What about the “molar heat capacity at constant pressure” value ([2]; w2 = 0.002) of the same molecule?
A: 1.768 ± 0.22 J/K/mol

Q: What about the “molar heat capacity at constant pressure” value ([2]; w2 = 0.014) of the same molecule?
A: 1.793 ± 0.22 J/K/mol

Q: What about the “molar heat capacity at constant pressure” value ([2]; w2 = 0.032) of the same molecule?
A: 1.996 ± 0.22 J/K/mol and 2.027 ± 0.22 J/K/mol

Q: What about the “molar heat capacity at constant pressure” value ([2]; w2 = 0.087) of the same molecule?
A: 2.267 ± 0.22 J/K/mol

Q: What about the “molar heat capacity at constant pressure” value ([2]; w2 = 0.097) of the same molecule?
A: 2.252 ± 0.22 J/K/mol

Q: What about the “molar heat capacity at constant pressure” value ([2]; w2 = 0.15) of the same molecule?
A: 2.244 ± 0.22 J/K/mol

Q: And the “molar heat capacity at constant pressure” value ([2]; w2 = 0.233)?
A: 2.448 ± 0.22 J/K/mol

Q: What about the “molar heat capacity at constant pressure” value ([2]; w2 = 0.429) of the same molecule?
A: 2.926 ± 0.22 J/K/mol

Q: With O [water] + CCCCn1cc[n+](C)c1.CS(=O)(=O)[O-] as the molecule, how does the viscosity ([1]; x1 = 1) read?
A: 0.334 ± 0.033 mPa·s

Q: And the “molar heat capacity at constant pressure” value ([2]; w1 = 1)?
A: 4.12 ± 0.23 J/K/mol

Q: Which electrical conductivity ([3]; Alternating current cell with electrodes) does the source give for CCCCn1cc[n+](C)c1.CS(=O)(=O)[O-] [1-butyl-3-methylimidazolium methanesulfonate] here?
A: 0.805 ± 0.14 S/m

Q: And the mass density ([3]; Vibrating tube method)?
A: 1134 ± 2 kg/m3
